Earlier results, collected in article PMC3828007 (CPT: Pharmacometrics & Systems Pharmacology, 2013).

Tests used:
NET (plasma DHPG) = conditions: read-out: in vivo EC50 for inhibitory effect on plasma DHPG

Structure (SMILES) | EC50 (NET (plasma DHPG)) | CYP inhibition liability (CYP)
COc1ccc(C(CN(C)C)C2(O)CCCCC2)cc1 (centres unmarked) [venlafaxine] |  | moderate
